Ten compounds from ChEMBL document CHEMBL1201862, “PubChem BioAssay data set” (2004) can be followed below.

Molecules are shown by their SMILES.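 Where inhibition never reached the appropriate level, the endpoint shown equals the highest concentration tested. Otherwise, values were interpolated linearly from a five-concentration, 48-hour dose response in 96-well plates. GI50 is the concentration that inhibits growth by half.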 Active and inactive are the calls of the source. No stated cut-off is given here; in the data, active = GI50 up to about 1.1 µM and inactive = higher.

Among the test systems are LOX IMVI; NCI-H23; HCT-116; HOP-92; HOP-62; Malme-3M; RPMI-8226; ACHN; SK-MEL-28; SW-620; K562; UACC-62; OVCAR-8; T47D; SK-OV-3; IGROV-1; A549; SK-MEL-5; TK-10; HT-29.
Assay in all cases: NCI-60 cell line screen, 48 h

On to `O=C1NNC(=O)c2ccccc2SSc2ccccc2C(=O)NNC(=O)c2ccccc2SSc2ccccc21`, for which the GI50 was 12 µM (inactive) in the experiment on LOX IMVI; 9.33 µM (inactive) in the experiment on NCI-H23; 7.76 µM (inactive) in the experiment on HCT-116; > 50 µM (inactive) in the experiment with HOP-92; 21.4 µM (inactive) in the experiment with HOP-62; 15.6 µM (inactive) with Malme-3M. Besides, the GI50 is 34 µM (inactive) with RPMI-8226; 14 µM (inactive) in the experiment with ACHN; 45.5 µM (inactive) in the experiment on SK-MEL-28; 8.59 µM (inactive) in the experiment with SW-620; 12.9 µM (inactive) in the experiment on K562; 16.7 µM (inactive) in the experiment on UACC-62. The GI50 with OVCAR-8 is 12.5 µM (inactive); in the experiment with T47D, 28.8 µM (inactive); in the experiment on SK-OV-3, 23.3 µM (inactive); in the experiment on IGROV-1, 9.25 µM (inactive); with A549 it was 19.5 µM (inactive); with SK-MEL-5, 26.9 µM (inactive). Further, the GI50 in the experiment with TK-10 was 36.9 µM (inactive); with HT-29, 16.7 µM (inactive).

Turning to `COc1ccc(NC(=S)N/N=C2\C(=O)Nc3ccccc32)cc1`, the GI50 in the experiment with LOX IMVI is 2.92 µM (inactive); with NCI-H23, 14.7 µM (inactive); in the experiment on HCT-116 it was 5.14 µM (inactive); with HOP-92, 44 µM (inactive); in the experiment with HOP-62, 12.2 µM (inactive); in the experiment on Malme-3M, 12.9 µM (inactive). The GI50 is 31.4 µM (inactive) with RPMI-8226; 6.5 µM (inactive) in the experiment with ACHN; 43.1 µM (inactive) in the experiment on SK-MEL-28; 6.28 µM (inactive) in the experiment on SW-620; 5.69 µM (inactive) in the experiment with K562; 6.24 µM (inactive) in the experiment on UACC-62. For the same compound, the GI50 was 7.55 µM (inactive) with OVCAR-8; 7.98 µM (inactive) in the experiment with T47D; 20.8 µM (inactive) in the experiment with SK-OV-3; 4.83 µM (inactive) with IGROV-1; 5.52 µM (inactive) in the experiment on A549; 9.27 µM (inactive) in the experiment with SK-MEL-5. The GI50 is 22 µM (inactive) in the experiment with TK-10 and 7.96 µM (inactive) in the experiment with HT-29.

Turning to `O=C(O)c1nnsc1-c1csnn1`, the GI50 in the experiment on LOX IMVI, in the experiment on NCI-H23, with HCT-116, in the experiment on HOP-92, in the experiment with HOP-62 and in the experiment with Malme-3M was > 100 µM (inactive) in each case. The GI50 with RPMI-8226, in the experiment with ACHN, in the experiment on SK-MEL-28, in the experiment on SW-620, in the experiment on K562 and in the experiment with UACC-62 was > 100 µM (inactive) throughout. In addition, the GI50 with OVCAR-8, in the experiment with T47D, in the experiment with SK-OV-3, in the experiment with IGROV-1, in the experiment on A549 and in the experiment with SK-MEL-5 was > 100 µM (inactive) in each case. For the same compound, the GI50 is 74.8 µM (inactive) in the experiment with TK-10 and > 100 µM (inactive) in the experiment with HT-29.

With `O=C(NCc1cccnc1)NCc1cccnc1`, the GI50 in the experiment with LOX IMVI, in the experiment with NCI-H23, with HCT-116, in the experiment on HOP-92, with HOP-62 and in the experiment with Malme-3M was > 100 µM (inactive) throughout. Moreover, the GI50 in the experiment with RPMI-8226, in the experiment on ACHN, in the experiment with SK-MEL-28, with SW-620, in the experiment on K562 and with UACC-62 was > 100 µM (inactive) throughout. The GI50 in the experiment on OVCAR-8, in the experiment with T47D, with SK-OV-3, in the experiment on IGROV-1, with A549 and with SK-MEL-5 was > 100 µM (inactive) each time. The GI50 in the experiment on TK-10 and with HT-29 was > 100 µM (inactive) each time.

Turning to `CNc1ncc(-c2nnnn2-c2ccccc2)c(CN(C)C)n1`, the GI50 in the experiment with LOX IMVI, in the experiment on NCI-H23, in the experiment with HCT-116, with HOP-92, in the experiment on HOP-62 and in the experiment on Malme-3M was > 100 µM (inactive) in each case. Also, the GI50 in the experiment with RPMI-8226, with ACHN, in the experiment on SK-MEL-28, in the experiment with SW-620, in the experiment with K562 and with UACC-62 was > 100 µM (inactive) in each case. Besides, the GI50 in the experiment on OVCAR-8, in the experiment on T47D, in the experiment on SK-OV-3, in the experiment on IGROV-1, in the experiment with A549 and in the experiment with SK-MEL-5 was > 100 µM (inactive) throughout. For the same compound, the GI50 with TK-10 and in the experiment with HT-29 was > 100 µM (inactive) each time.

As to `CCOC(=O)c1sc2ncnc(N)c2c1C`, the GI50 was 43.8 µM (inactive) in the experiment with LOX IMVI; 70.3 µM (inactive) in the experiment on NCI-H23; 30.5 µM (inactive) with HCT-116; 8.99 µM (inactive) with HOP-92; 80 µM (inactive) with HOP-62; 82.8 µM (inactive) in the experiment with Malme-3M. The GI50 in the experiment on RPMI-8226 is 95.5 µM (inactive); in the experiment with ACHN, 65.8 µM (inactive); in the experiment with SK-MEL-28, 45.3 µM (inactive); with SW-620, > 100 µM (inactive); in the experiment on K562, > 100 µM (inactive); with UACC-62 it was 35.3 µM (inactive). The GI50 with OVCAR-8 was 35 µM (inactive); in the experiment on T47D, 24.2 µM (inactive); with SK-OV-3, > 100 µM (inactive); with IGROV-1, 22.1 µM (inactive); in the experiment on A549 it was > 100 µM (inactive); in the experiment on SK-MEL-5, 36.8 µM (inactive). In addition, the GI50 is 34 µM (inactive) in the experiment on TK-10 and 18.2 µM (inactive) with HT-29.

Turning to `CCOP(=O)(OCC)C(Nc1ccc(Br)cc1)c1cccc([N+](=O)[O-])c1` (stereo not given), the GI50 in the experiment on LOX IMVI is 10.4 µM (inactive); in the experiment on NCI-H23, 20.7 µM (inactive); in the experiment on HCT-116, 12.7 µM (inactive); in the experiment on HOP-92 it was 20.7 µM (inactive); in the experiment on HOP-62, 17.5 µM (inactive); in the experiment with Malme-3M, 18.2 µM (inactive). Moreover, the GI50 with RPMI-8226 is 28.2 µM (inactive); with ACHN it was 18.3 µM (inactive); with SK-MEL-28, 15.2 µM (inactive); in the experiment with SW-620 it was 16.9 µM (inactive); in the experiment with K562 it was 12 µM (inactive); with UACC-62, 14.7 µM (inactive). Further, the GI50 in the experiment on OVCAR-8 is 24.6 µM (inactive); in the experiment on T47D, 12.6 µM (inactive); in the experiment with SK-OV-3, 14.6 µM (inactive); with IGROV-1 it was 22.1 µM (inactive); in the experiment on A549, 15.8 µM (inactive); with SK-MEL-5, 14.6 µM (inactive). The GI50 in the experiment with TK-10 is 30.5 µM (inactive); in the experiment with HT-29, 16.8 µM (inactive).

For `C=C1[C@H](OCC(C)C)[C@@H](OC(=O)C(C)CC)[C@@H](O)C(C)(C)/C=C/[C@H](C)C(=O)[C@@]2(O)C[C@H](C)[C@H](O)[C@@H]2[C@H]1OC(=O)C(C)CC` (stereo not given in full), the GI50 is 4.2 µM (inactive) in the experiment with LOX IMVI; 5.2 µM (inactive) in the experiment with NCI-H23; 4.88 µM (inactive) in the experiment with HCT-116; 1.79 µM (inactive) in the experiment with HOP-92; 2.17 µM (inactive) in the experiment with HOP-62; 6.62 µM (inactive) with Malme-3M. In addition, the GI50 in the experiment with RPMI-8226 is 0.516 µM (active); in the experiment on ACHN, 3.02 µM (inactive); in the experiment on SK-MEL-28, 10.2 µM (inactive); with SW-620 it was 5.24 µM (inactive); with K562 it was 0.991 µM (active); in the experiment with UACC-62 it was 3.92 µM (inactive). Also, the GI50 is 9.98 µM (inactive) in the experiment on OVCAR-8; > 13.1 µM (inactive) in the experiment with T47D; 19.7 µM (inactive) with SK-OV-3; 7.98 µM (inactive) in the experiment with IGROV-1; 1.38 µM (inactive) in the experiment with A549; 2.23 µM (inactive) in the experiment with SK-MEL-5. The GI50 in the experiment on TK-10 is 4 µM (inactive); in the experiment with HT-29 it was 2.56 µM (inactive).

On to `Nc1nc(O)c(N)c(NCCOCP(=O)(O)O)n1`, for which the GI50 was > 100 µM (inactive) with LOX IMVI; > 57.8 µM (inactive) in the experiment on NCI-H23; > 100 µM (inactive) with HCT-116; > 100 µM (inactive) with HOP-92; > 100 µM (inactive) in the experiment with HOP-62; > 100 µM (inactive) with Malme-3M. Besides, the GI50 was > 100 µM (inactive) with RPMI-8226; > 100 µM (inactive) in the experiment with ACHN; > 100 µM (inactive) in the experiment on SK-MEL-28; > 100 µM (inactive) with SW-620; > 100 µM (inactive) in the experiment with K562; > 57.1 µM (inactive) in the experiment on UACC-62. In addition, the GI50 with OVCAR-8, in the experiment on T47D, with SK-OV-3, in the experiment on IGROV-1, in the experiment on A549 and in the experiment on SK-MEL-5 was > 100 µM (inactive) throughout. Further, the GI50 with TK-10 and in the experiment with HT-29 was > 100 µM (inactive) each time.

`COC1C(O)C(O[C@H]2CC[C@@]3(C)C(CC[C@@H]4[C@@H]3CC[C@]3(C)[C@@H](C(C)OC5OC(CO)C(O)C(O)C5O)CC[C@]43O)C2)OC(C)C1OC1OC(CO)C(O)C(O)C1O` (stereo not given in full): the GI50 with LOX IMVI, with NCI-H23, in the experiment with HCT-116, in the experiment on HOP-92, in the experiment with HOP-62 and in the experiment with Malme-3M was > 100 µM (inactive) in each case. Further, the GI50 with RPMI-8226, in the experiment with ACHN, in the experiment on SK-MEL-28, in the experiment on SW-620, in the experiment with K562 and with UACC-62 was > 100 µM (inactive) each time. Further, the GI50 with OVCAR-8, in the experiment on T47D, in the experiment on SK-OV-3, with IGROV-1, with A549 and in the experiment on SK-MEL-5 was > 100 µM (inactive) in each case. Moreover, the GI50 in the experiment with TK-10 and in the experiment with HT-29 was > 100 µM (inactive) each time.
